Here are results for one substance from PMC7555312, “Functional Characterization of Temporin-SHe, a New Broad-Spectrum Antibacterial and Leishmanicidal Temporin-SH Paralog from the Sahara Frog (Pelophylax saharicus)” (International Journal of Molecular Sciences, 2020).

Where no end group is shown, it is not given here.

For orientation: MIC means the lowest concentration that inhibits growth of the organism. The low end stands for greater potency, the high end for weaker potency. For orientation: IC50 means the concentration that inhibits the measured activity by half.

Data set [1] relates to P. aeruginosa ATCC 27853. The class given is cell-based, Pseudomonas aeruginosa.
Procedure: (§2) Antimicrobial activity was assessed with a liquid growth inhibition assay performed according to a previously described protocol [14] using the Clinical and Laboratory Standards Institute (CLSI) guidelines. Briefly, in 96-well microtitration plates, mid-log-phase bacteria diluted to 10^6 CFU/mL in Mueller–Hinton (MH) broth were added to different concentrations of synthetic temporin-SHe (1–200 µM, final concentrations) and incubated at 37 °C for 18–20 h, under shaking (150 rpm). For E. faecalis, L. ivanovii and yeasts/fungi, 10^6 CFU/mL suspensions were prepared in LB broth, brain heart infusion (BHI) medium and Yeast Peptone Dextrose (YPD) medium, respectively, and incubation was performed at 30 °C for yeasts/fungi. […] MIC values represent the average of three independent experiments, each performed in triplicate with negative (no peptide) and positive (formaldehyde 0.7%) controls.
For data set [2], the system named is B. megaterium. The class given is cell-based, Bacillus megaterium.
Procedure: as §2
Data set [3] relates to C. albicans ATCC 90028. It counts as cell-based, Candida albicans.
Procedure: as §2
Data set [4] concerns C. parapsilosis ATCC 22019. The class given is cell-based, Candida parapsilosis.
Procedure: as §2
The test system of data set [5] is S. cerevisiae. The class given is cell-based, Saccharomyces cerevisiae.
Procedure: as §2
Data set [6] relates to L. infantum promastigotes (strain MHOM/MA/67/ITMAP-263). It counts as cell-based, Leishmania infantum. As to conditions: 72 h, 26 °C. As to the method: (§1) Antileishmanial activity of temporin-SHe was analyzed by a luminescence-based growth inhibition method using Leishmania promastigotes transfected with the vector pGMαNEOαLUC containing the gene LUC that codes for the firefly luciferase, cultured at 26 °C in SDM-79 medium supplemented with 10% fetal calf serum (Gibco), as previously described. Mid-log-phase promastigotes (1.25 × 10^6 cells/mL) were added in 96-well plates containing different concentrations of synthetic temporin-SHe (3.125–50 µM, final concentrations), and incubated 72 h at 26 °C. […] IC50 was determined with GraphPad Prism® 6.0 software (GraphPad Software, La Jolla, CA, USA) using a sigmoidal dose–response curve fitting equation.

The subject of data set [7] is L. major promastigotes (strain MHOM/SU/73/5-ASKH). It counts as cell-based, Leishmania major. Conditions: 72 h, 26 °C. The method, then:
as §1

Data set [8] deals with human THP-1 monocytes. The data set is described as follows: Cytotoxicity, MTT assay. As to conditions: THP-1, 72 h, 37 °C, calculated mean from dose–response curves. As to the method:
Hemolytic activity of temporin-SHe was determined against human red blood cells (RBCs), as described in [13]. After incubating the peptide (1–200 µM, final concentrations) with RBCs (2 × 10^7 cells) in 100 µL PBS for 1 h at 37 °C, centrifugation was completed (12,000× g, 15 s) and the absorbance of the supernatant was measured at 450 nm. RBCs suspended in PBS or 0.1% (v/v) Triton X-100 yielded an absorbance associated with 0% and 100% hemolysis, respectively. The percentage of hemolysis was calculated as follow: Hemolysis (%) = [A450 (RBCs with peptide)–A450 (RBCs in PBS)]/[A450 (RBCs with Triton X-100)–A450 (RBCs in PBS)]. Cytotoxicity of temporin-SHe was also assessed on human leukemia monocyte cell line THP-1. Briefly, monocytes (6.25 × 10^5 cells/mL) were incubated with different peptide concentrations (3–50 µM, final concentrations) for 72 h at 37 °C, then cell viability was determined by the MTT assay according to a previously described protocol. Results were expressed as the mean of two independent experiments performed in triplicate.

The test system of data set [9] is S. aureus ATCC 25923. The data set is described as follows: Membrane depolarization assay, DiSC3(5). It counts as cell-based, Staphylococcus aureus. Conditions: peptide at 2-fold MIC; 10^7 cfu/mL in PBS, 1 µM DiSC3(5), 37 °C, 20 min recording; representative of three assays. As to the method:
The depolarization of S. aureus ATCC 25923 cytoplasmic membrane induced by temporin-SHe and temporin-SHd was investigated using the membrane potential-sensitive cyanine dye DiSC3(5) (3,3′-dipropylthiadicarbocyanine iodide), as detailed in [29]. An amount of 700 µL of bacteria resuspended in PBS (10^7 cfu/mL) containing 1 μM DiSC3(5) were preincubated in the dark during 10 min at 37 °C, and then 100 µL of 1 mM KCl were added to the mixture. Fluorescence (λex = 622 nm; λem = 670 nm) was recorded during 20 min at 37 °C (Varian Cary Eclipse fluorescence spectrophotometer) after addition of the peptide (200 µL, final concentration: 2-fold above the MIC). Three independent experiments were performed and the results correspond to a representative experiment with negative (PBS) and positive (melittin) controls.

Data set [10] relates to E. coli ATCC 25922. Description: Time-killing assay. It counts as cell-based, Escherichia coli. Conditions: two-fold MIC (50 µM temporin-SHe), 10^6 cfu/mL in PBS, plate counting. As to the method: Aliquots were withdrawn at different times and spread onto LB agar plates for cell counting after overnight incubation at 37 °C. Controls corresponding to the bacterial suspensions without peptide were also run. Two independent experiments were performed in triplicate. Results were expressed as the mean ± S.D. of a representative experiment.

The test system of data set [11] is S. aureus ATCC BAA-44. The method, then: Antibacterial activity of temporin-SHe was evaluated against Gram-positive bacteria including S. aureus strains (ATCC 25923, ST1065), antibiotic-resistant S. aureus strains (ATCC 43300, ATCC BAA-44), E. faecalis (ATCC 29212), B. megaterium, and L. ivanovii (Li4pVS2), and Gram-negative bacteria including E. coli strains (ATCC 25922, ATCC 35218, ML-35p), S. enterica (serotype Enteritidis), P. aeruginosa (ATCC 27853), A. baumannii (ATCC 19606) and K. pneumoniae (ATCC 13883). Antifungal activity was evaluated against C. albicans (ATCC 90028), C. parapsilosis (ATCC 22019) and S. cerevisiae. ATCC strains were purchased from American-Type Culture Collection (ATCC, Virginia, VA, USA). Antiparasitic activity was determined against promastigotes of several species of Leishmania responsible for visceral, cutaneous and mucocutaneous leishmaniases: L. infantum (strain MHOM/MA/67/ITMAP-263), L. major (strain MHOM/SU/73/5-ASKH), and L. braziliensis (strain MHOM/BR/75/M2904), respectively. Cytotoxicity was assessed against human red blood cells and THP-1 monocytes. Peripheral blood was obtained from healthy adult donors (Établissement Français du Sang, Paris, France). All donors signed informed consent allowing the use of their blood for research purposes.
Antimicrobial activity was assessed with a liquid growth inhibition assay performed according to a previously described protocol using the Clinical and Laboratory Standards Institute (CLSI) guidelines. Briefly, in 96-well microtitration plates, mid-log-phase bacteria diluted to 10^6 CFU/mL in Mueller–Hinton (MH) broth were added to different concentrations of synthetic temporin-SHe (1–200 µM, final concentrations) and incubated at 37 °C for 18–20 h, under shaking (150 rpm). For E. faecalis, L. ivanovii and yeasts/fungi, 10^6 CFU/mL suspensions were prepared in LB broth, brain heart infusion (BHI) medium and Yeast Peptone Dextrose (YPD) medium, respectively, and incubation was performed at 30 °C for yeasts/fungi. […] MIC values represent the average of three independent experiments, each performed in triplicate with negative (no peptide) and positive (formaldehyde 0.7%) controls.

Where [12] appears, read: luciferase-expressing promastigotes 1.25 × 10^6 cells/mL, Steady-Glo, mean of three independent experiments in triplicate.

On to FLPALAGIAGLLGKIF-NH2 [Temporin-SHe], for which the MIC is 60 µM in data set [1]; 1.56 µM in data set [2]; greater than 100 µM in [3]; 50 µM in [4]; 12.5 µM in data set [5]; 3.12 µM in data set [11]. Moreover, the figures for the IC50 in data set [6] (setting [12]) and in data set [7] (setting [12]) were 4.6 µM and 11.6 µM, respectively. In data set [6] (peptide 3.12 µM, promastigotes, mean of three independent assays in triplicates), the “inhibition of L. infantum growth” value worked out at 42%. Also, in [7] (peptide 12.5 µM, promastigotes, mean of three independent assays in triplicates), the “Leishmania growth inhibition (L. major)” value worked out at 85%. The “LC50 (lethal concentration 50)” value in data set [8] was 11.4 µM. The “membrane depolarization (DiSC3(5) fluorescence increase)” value in data set [9] is listed as “instantaneous”. Besides, the “time to total killing” value in data set [10] worked out at 90 min.
